Experimental data published in ChEMBL document CHEMBL4680090 (J Med Chem, 2016).
≈ marks a conversion by molar mass, not a printed value.

Experiments:
[1] = target: BDNF/NT-3 growth factors receptor (Homo sapiens, UniProt Q16620)
physchem [2] = details: octanol/water, pH 7.4
[3] = human, hepatocytes, 4 h, 1 µM
physchem [4] = details: buffer, pH 6.5
in vitro = details: human, liver microsomes
[5] = target: High affinity nerve growth factor receptor (Homo sapiens, UniProt P04629)
[6] = target: T1, Voltage-gated inwardly rectifying potassium channel KCNH2 (Homo sapiens, UniProt Q12809)
human BCRP [7] = experiment: in vitro; details: dog
human BCRP [8] = experiment: in vitro; details: dog; remark: listed apart in the source
MDR1 (P-gp) = experiment: in vitro; details: dog, MDCK-MDR1
Aldehyde oxidase [9] = target: T2, Aldehyde oxidase (Homo sapiens, UniProt Q06278); experiment: Drug metabolism in human liver S9 fractions assessed as AO-mediated oxidation at 2-aminopyrimidyl ring at 10 uM incubated for 60 mins in absence of CYP cofactor NADP by HPLC-UV chromatography; type: ADME, subcellular; details: s9, 1 h
T2 sequence (Q06278 whole entry): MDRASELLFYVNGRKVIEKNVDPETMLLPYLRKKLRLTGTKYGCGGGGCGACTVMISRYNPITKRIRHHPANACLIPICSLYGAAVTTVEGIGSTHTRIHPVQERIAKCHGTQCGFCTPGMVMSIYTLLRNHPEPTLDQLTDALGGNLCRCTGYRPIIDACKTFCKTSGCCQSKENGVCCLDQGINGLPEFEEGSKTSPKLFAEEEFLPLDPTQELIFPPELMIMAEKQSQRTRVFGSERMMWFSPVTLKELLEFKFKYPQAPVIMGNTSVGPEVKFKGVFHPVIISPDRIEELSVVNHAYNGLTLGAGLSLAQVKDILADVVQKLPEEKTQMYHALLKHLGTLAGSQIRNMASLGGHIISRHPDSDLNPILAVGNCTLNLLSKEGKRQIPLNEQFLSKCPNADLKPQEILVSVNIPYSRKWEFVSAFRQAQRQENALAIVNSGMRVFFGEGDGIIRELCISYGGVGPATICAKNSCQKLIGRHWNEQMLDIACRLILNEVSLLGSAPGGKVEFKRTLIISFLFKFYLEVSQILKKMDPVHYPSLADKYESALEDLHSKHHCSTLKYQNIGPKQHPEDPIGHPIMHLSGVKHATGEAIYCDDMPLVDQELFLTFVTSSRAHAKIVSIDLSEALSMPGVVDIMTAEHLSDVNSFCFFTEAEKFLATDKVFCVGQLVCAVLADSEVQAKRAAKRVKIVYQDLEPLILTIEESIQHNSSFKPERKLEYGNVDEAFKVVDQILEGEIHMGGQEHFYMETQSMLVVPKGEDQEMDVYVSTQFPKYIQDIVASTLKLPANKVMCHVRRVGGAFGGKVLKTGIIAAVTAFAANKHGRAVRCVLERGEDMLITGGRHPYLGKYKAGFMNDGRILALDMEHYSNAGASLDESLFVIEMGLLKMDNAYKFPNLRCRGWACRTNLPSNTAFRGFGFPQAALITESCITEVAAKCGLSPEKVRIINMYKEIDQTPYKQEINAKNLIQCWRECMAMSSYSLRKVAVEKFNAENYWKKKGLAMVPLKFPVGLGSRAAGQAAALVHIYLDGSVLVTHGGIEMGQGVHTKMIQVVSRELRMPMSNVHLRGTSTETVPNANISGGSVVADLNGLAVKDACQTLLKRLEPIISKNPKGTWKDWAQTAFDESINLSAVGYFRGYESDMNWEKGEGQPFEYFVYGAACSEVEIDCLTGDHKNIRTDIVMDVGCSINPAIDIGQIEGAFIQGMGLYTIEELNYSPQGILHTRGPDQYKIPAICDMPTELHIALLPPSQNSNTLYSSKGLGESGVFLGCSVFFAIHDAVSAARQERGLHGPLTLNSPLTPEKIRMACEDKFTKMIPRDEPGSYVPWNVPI

Aldehyde oxidase [10] = target: T2, Aldehyde oxidase; experiment: Drug metabolism in human liver S9 fractions assessed as AO-mediated oxidation at fluoro-pyrrolopyridine motif at 10 uM incubated for 60 mins in absence of CYP cofactor NADP by HPLC-UV chromatography; type: ADME, subcellular; details: s9, 1 h
[11] = target: T1, Voltage-gated inwardly rectifying potassium channel KCNH2; remark: listed apart in the source
[12] = Toxicity in rat assessed as drug tolerability at 400 mg/kg/day during 7 day toxicological study; type: organism-based; details: in vivo, 168 h
[13] = Clearance in rat at 1 mg/kg, iv relative to hepatic blood flow; type: ADME, organism-based; details: in vivo
[14] = Clearance in rat at 1 mg/kg, iv; type: ADME, organism-based; details: in vivo
[15] = Volume of distribution in rat at 1 mg/kg, iv; type: ADME, organism-based; details: in vivo, read-out: Vdss
Aldehyde oxidase [16] = target: T2, Aldehyde oxidase; experiment: Drug metabolism in human liver S9 fractions assessed as AO-mediated oxidation on pyrrolopyrimidine-hinge binding group at 10 uM incubated for 60 mins in absence of CYP cofactor NADP by HPLC-UV chromatography; type: ADME, subcellular; details: s9, 1 h
Aldehyde oxidase [17] = target: T2, Aldehyde oxidase; experiment: Drug metabolism in human liver S9 fractions assessed as AO-mediated oxidation on central pyridine substituent at 10 uM incubated for 60 mins in absence of CYP cofactor NADP by HPLC-UV chromatography; type: ADME, subcellular; details: s9, 1 h
[18] = Half life in rat at 1 mg/kg, iv; type: ADME, organism-based; details: in vivo
[19] = Oral bioavailability in rat at 3 mg/kg; type: ADME, organism-based; details: in vivo
in vivo = details: rat, brain and plasma, po, 100 mg/kg
Aldehyde oxidase [20] = target: T2, Aldehyde oxidase; experiment: Drug metabolism in human liver S9 fractions assessed as AO-mediated mono-oxidised metabolite formation at 10 uM incubated for 60 mins in absence of CYP cofactor NADP and in presence of 50 uM AO inhibitor menadione by HPLC-UV chromatography; type: ADME, subcellular; details: s9, 1 h
Aldehyde oxidase [21] = target: T2, Aldehyde oxidase; experiment: Drug metabolism in human liver S9 fractions assessed as AO-mediated mono-oxidised metabolite formation at 10 uM incubated for 60 mins in absence of CYP cofactor NADP by HPLC-UV chromatography; type: ADME, subcellular; details: s9, 1 h
Aldehyde oxidase [22] = target: T2, Aldehyde oxidase; experiment: Drug metabolism in human liver S9 fractions assessed as AO-mediated mono-oxidised metabolite formation at 10 uM incubated for 60 mins in absence of CYP cofactor NADP and in presence of 50 uM XO inhibitor allopurinol by HPLC-UV chromatography; type: ADME, subcellular; details: s9, 1 h
Aldehyde oxidase [23] = target: T2, Aldehyde oxidase; experiment: Drug metabolism in human liver S9 fractions assessed as AO-mediated amide hydrolysis at 10 uM incubated for 60 mins in absence of CYP cofactor NADP by HPLC-UV chromatography; type: ADME, subcellular; details: s9, 1 h
Aldehyde oxidase [24] = target: T2, Aldehyde oxidase; experiment: Drug metabolism in human liver S9 fractions assessed as AO-mediated oxidation on amino-pyrrolopyrimidine hinge binding group and central pyridine substituent at 10 uM incubated for 60 mins in absence of CYP cofactor NADP by HPLC-UV chromatography; type: ADME, subcellular; details: s9, 1 h
Aldehyde oxidase [25] = target: T2, Aldehyde oxidase; experiment: Drug metabolism in human liver S9 fractions assessed as AO-mediated oxidation on pyrrolopyrimidine-hinge binding group and the central pyridine substituent at 10 uM incubated for 60 mins in absence of CYP cofactor NADP by HPLC-UV chromatography; type: ADME, subcellular; details: s9, 1 h

Chain of BDNF/NT-3 growth factors receptor (Q16620 whole entry): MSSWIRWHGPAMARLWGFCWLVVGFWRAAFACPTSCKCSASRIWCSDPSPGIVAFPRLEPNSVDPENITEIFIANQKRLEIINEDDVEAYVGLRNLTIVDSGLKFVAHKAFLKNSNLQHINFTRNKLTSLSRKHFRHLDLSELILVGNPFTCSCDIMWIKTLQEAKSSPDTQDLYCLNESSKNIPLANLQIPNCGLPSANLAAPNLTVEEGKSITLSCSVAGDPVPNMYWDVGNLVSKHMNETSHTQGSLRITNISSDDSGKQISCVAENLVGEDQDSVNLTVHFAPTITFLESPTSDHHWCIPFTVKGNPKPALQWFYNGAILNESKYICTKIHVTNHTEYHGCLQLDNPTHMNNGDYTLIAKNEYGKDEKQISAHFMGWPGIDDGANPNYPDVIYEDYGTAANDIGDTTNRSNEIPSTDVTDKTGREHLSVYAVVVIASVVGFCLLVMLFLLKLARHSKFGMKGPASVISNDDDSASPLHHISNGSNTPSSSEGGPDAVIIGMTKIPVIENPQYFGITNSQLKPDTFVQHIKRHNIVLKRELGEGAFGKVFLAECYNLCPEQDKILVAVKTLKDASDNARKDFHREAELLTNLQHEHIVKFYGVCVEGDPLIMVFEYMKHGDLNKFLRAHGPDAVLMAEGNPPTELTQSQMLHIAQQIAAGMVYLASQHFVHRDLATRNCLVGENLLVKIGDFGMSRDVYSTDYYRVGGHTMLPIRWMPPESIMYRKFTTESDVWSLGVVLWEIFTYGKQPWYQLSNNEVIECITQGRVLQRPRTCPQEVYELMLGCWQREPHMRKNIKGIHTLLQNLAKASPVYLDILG
Chain of High affinity nerve growth factor receptor (P04629 whole entry): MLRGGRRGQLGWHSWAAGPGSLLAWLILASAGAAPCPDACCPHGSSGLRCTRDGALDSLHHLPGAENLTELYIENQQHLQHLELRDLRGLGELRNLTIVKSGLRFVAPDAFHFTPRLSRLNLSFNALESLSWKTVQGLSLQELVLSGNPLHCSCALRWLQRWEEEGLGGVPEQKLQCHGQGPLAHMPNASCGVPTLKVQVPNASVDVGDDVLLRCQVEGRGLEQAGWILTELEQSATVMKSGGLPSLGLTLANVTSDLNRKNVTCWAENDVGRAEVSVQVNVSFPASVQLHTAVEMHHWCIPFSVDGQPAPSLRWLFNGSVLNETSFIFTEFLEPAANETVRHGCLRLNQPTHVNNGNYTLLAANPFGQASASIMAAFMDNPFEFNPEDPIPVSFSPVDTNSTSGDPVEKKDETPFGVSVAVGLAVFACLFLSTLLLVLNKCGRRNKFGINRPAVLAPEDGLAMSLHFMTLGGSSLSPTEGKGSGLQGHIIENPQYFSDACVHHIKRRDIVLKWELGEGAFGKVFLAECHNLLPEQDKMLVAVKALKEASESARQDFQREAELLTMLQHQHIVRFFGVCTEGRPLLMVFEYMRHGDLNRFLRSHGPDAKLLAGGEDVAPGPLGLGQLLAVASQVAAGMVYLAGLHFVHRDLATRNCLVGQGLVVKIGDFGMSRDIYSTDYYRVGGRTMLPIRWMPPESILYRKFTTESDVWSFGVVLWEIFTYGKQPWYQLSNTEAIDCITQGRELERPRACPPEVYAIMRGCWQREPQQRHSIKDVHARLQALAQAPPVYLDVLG
T1 sequence (Q12809 whole entry): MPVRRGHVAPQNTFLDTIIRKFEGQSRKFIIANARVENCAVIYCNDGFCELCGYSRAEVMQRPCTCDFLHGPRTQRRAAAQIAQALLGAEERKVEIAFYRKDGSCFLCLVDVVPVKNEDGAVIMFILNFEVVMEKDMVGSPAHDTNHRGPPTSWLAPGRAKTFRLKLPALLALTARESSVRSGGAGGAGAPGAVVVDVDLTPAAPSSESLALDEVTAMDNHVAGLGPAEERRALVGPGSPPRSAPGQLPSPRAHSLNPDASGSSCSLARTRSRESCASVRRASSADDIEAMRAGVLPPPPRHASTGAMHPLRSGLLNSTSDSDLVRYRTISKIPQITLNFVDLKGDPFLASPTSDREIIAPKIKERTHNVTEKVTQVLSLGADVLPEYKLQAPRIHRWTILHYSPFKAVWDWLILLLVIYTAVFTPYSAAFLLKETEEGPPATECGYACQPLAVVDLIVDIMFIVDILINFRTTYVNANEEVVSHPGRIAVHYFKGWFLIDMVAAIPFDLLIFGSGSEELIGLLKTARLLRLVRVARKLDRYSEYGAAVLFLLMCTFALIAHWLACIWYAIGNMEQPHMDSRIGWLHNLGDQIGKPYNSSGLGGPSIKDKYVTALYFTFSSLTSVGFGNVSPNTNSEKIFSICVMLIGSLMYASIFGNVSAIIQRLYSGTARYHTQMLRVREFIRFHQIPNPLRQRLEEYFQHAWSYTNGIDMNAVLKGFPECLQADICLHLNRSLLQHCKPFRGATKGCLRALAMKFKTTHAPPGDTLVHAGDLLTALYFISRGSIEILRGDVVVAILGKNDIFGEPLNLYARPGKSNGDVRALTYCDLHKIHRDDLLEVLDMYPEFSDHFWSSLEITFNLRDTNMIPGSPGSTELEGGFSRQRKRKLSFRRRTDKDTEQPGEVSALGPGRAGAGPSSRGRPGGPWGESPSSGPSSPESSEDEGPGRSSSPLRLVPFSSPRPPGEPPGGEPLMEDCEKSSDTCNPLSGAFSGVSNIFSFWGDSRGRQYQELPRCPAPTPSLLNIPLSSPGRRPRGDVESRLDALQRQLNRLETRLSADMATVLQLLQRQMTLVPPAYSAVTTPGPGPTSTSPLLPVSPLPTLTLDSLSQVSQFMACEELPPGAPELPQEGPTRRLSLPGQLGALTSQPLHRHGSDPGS

IC50 [1] [nM]	logD (physchem [2])	CLH(app) [3] [µL/min]	solubility (physchem [4]) [µM]	microsomal CLint at 1 h, 1 µM (in vitro) [µL/min/mg]	IC50 [5] [nM]	Papp A→B (human BCRP [7]) [×10⁻⁶ cm/s]	efflux ratio (MDR1 (P-gp))	Structure (SMILES)	Ki [6] [nM]	further results
4	3.7	37	17.5 (≈ 7.59 µg/mL)	22	12	9.9	–	CC(C)n1cc(C(=O)c2cncc(NC(=O)Cc3ccc(Cl)cc3)c2)c2cncnc21	5200	–
4	2.5	12	–	25	18	18.4	5.8	CC(C)n1cc(C(=O)c2cncc(NC(=O)Cn3ccc(C4CC4)n3)c2)c2cncnc21	11900	efflux ratio (human BCRP [8]): 38
2	4.2	14	12 (≈ 5.39 µg/mL)	< 8	6	5.2	–	CC(C)n1cc(C(=O)c2cncc(NC(=O)Cc3ccc(Cl)cc3)c2)c2cnc(N)nc21	16900	Drug metabolism (Aldehyde oxidase [9]): Metabolite_Notdetected
5	2.5	24	30 (≈ 13.3 µg/mL)	8	8	15.8	–	CC(C)n1cc(C(=O)c2cncc(NC(=O)Cn3ccc(C4CC4)n3)c2)c2cnc(N)nc21	38900	Drug metabolism (Aldehyde oxidase [9]): Metabolite_Notdetected
–	–	–	–	–	–	–	–	CC(C)n1cc(C(=O)c2cc(NC(=O)Cc3ccc(Cl)cc3)ccn2)c2cncc(F)c21	–	Drug metabolism (Aldehyde oxidase [10]): Metabolite_Notdetected
5	2.7	23	–	35	17	19.8	12.5	CC(C)n1cc(C(=O)c2cncc(NC(=O)Cn3ccc(C4CC4)n3)c2)c2cnccc21	1400	–
7	3	12	7.5 (≈ 3.42 µg/mL)	< 8	13	11.3	–	CC(C)n1cc(C(=O)c2cncc(NC(=O)Cn3ccc(C(F)(F)F)n3)c2)c2cnccc21	1400	IC50 [11]: 1600 nM; Activity [12]: Non-Toxic; CL [13]: 70%; clearance [14]: 50 mL/min/kg; Vd [15]: 1.5 L/kg; Drug metabolism (Aldehyde oxidase [16]): Metabolite_Notdetected; Drug metabolism (Aldehyde oxidase [17]): Metabolite_Detected; half-life [18]: 2.3 h; bioavailability [19]: 16%; Kp uu at 3 h (in vivo): 0.0083
7	3.5	–	–	37	33	15.4	3.8	CC(C)n1cc(C(=O)c2cncc(NC(=O)Cn3ccc(C4CC4)n3)c2)c2cncc(F)c21	11300	–
–	4.3	–	13.6 (≈ 6.13 µg/mL)	23	3	24.1	10.9	CC(C)n1cc(C(=O)c2ccnc(NC(=O)Cc3ccc(F)cc3F)c2)c2c(N)ncnc21	8300	efflux ratio (human BCRP [8]): 10.9
–	3.7	11.2	29 (≈ 13.9 µg/mL)	< 8	–	6.4	–	CC(C)(CO)n1cc(C(=O)c2cncc(NC(=O)Cc3ccc(Cl)cc3)c2)c2cnc(N)nc21	> 4300	–
–	–	–	–	–	–	–	–	C[C@H](CO)n1cc(C(=O)c2ccnc(NC(=O)Cc3ccc(C#N)cc3)c2)c2cncnc21	–	Drug metabolism (Aldehyde oxidase [20]): Metabolite_Notdetected; Drug metabolism (Aldehyde oxidase [21]): Metabolite_Detected; Drug metabolism (Aldehyde oxidase [22]): Metabolite_Detected
8	2.5	7	4.4 (≈ 1.93 µg/mL)	22	73	12.1	27	CC(C)n1cc(C(=O)c2cncc(NC(=O)Cc3ccc(C#N)cc3)c2)c2c(N)ncnc21	9700	Drug metabolism (Aldehyde oxidase [23]): Metabolite_Detected; Drug metabolism (Aldehyde oxidase [24]): Metabolite_Detected; Drug metabolism (Aldehyde oxidase [25]): Metabolite_Detected; Kp uu at 3 h (in vivo): 0.013
